Assay results published in ChEMBL document CHEMBL5505979, “Novel aminothiazoximone-corbelled ethoxycarbonylpyrimidones with antibiofilm activity to conquer Gram-negative bacteria through potential multitargeting effects” (Eur J Med Chem, 2024).
≈ marks a conversion by molar mass, not a printed value. Where “and” joins values, the source holds several entries; their conditions need not be identical. Equal entries are not always repeated.

Key:
Assay type in all cases: functional
[1] = test system: Staphylococcus aureus; test: Anti-bacterial activity against methicillin-resistant Staphylococcus aureus N315 assessed as inhibition of bacterial growth
[2] = test system: Staphylococcus aureus; test: Anti-bacterial activity against methicillin-resistant Staphylococcus aureus ATCC 43300 assessed as inhibition of bacterial growth
[3] = test system: Enterococcus faecalis; test: Anti-bacterial activity against Enterococcus faecalis V583 assessed as inhibition of bacterial growth
[4] = test system: Klebsiella pneumoniae; test: Anti-bacterial activity against Klebsiella pneumoniae KPN325 assessed as inhibition of bacterial growth
[5] = test system: Staphylococcus aureus; test: Anti-bacterial activity against Staphylococcus aureus ATCC 1708 assessed as inhibition of bacterial growth
[6] = test system: Staphylococcus aureus; test: Anti-bacterial activity against Staphylococcus aureus ATCC 25923 assessed as inhibition of bacterial growth
[7] = test system: Staphylococcus aureus; test: Anti-bacterial activity against Staphylococcus aureus ATCC 29213 assessed as inhibition of bacterial growth
[8] = test system: Staphylococcus aureus; test: Anti-bacterial activity against Staphylococcus aureus ATCC 12600 assessed as inhibition of bacterial growth
[9] = test system: Staphylococcus aureus; test: Anti-bacterial activity against Staphylococcus aureus ATCC 6538 assessed as inhibition of bacterial growth
[10] = test system: Staphylococcus aureus; test: Anti-bacterial activity against Staphylococcus aureus CMCC (B) 26003 assessed as inhibition of bacterial growth
[11] = test system: Staphylococcus aureus; test: Anti-bacterial activity against Staphylococcus aureus CMCC (B) 26001 assessed as inhibition of bacterial growth
[12] = test system: Escherichia coli; test: Anti-bacterial activity against Escherichia coli JM109 assessed as inhibition of bacterial growth
[13] = test system: Escherichia coli; test: Anti-bacterial activity against Escherichia coli ATCC 25922 assessed as inhibition of bacterial growth
[14] = test system: Pseudomonas aeruginosa; test: Anti-bacterial activity against Pseudomonas aeruginosa ST235 assessed as inhibition of bacterial growth
[15] = test system: Pseudomonas aeruginosa; test: Anti-bacterial activity against Pseudomonas aeruginosa ATCC 27853 assessed as inhibition of bacterial growth
[16] = test system: Pseudomonas aeruginosa; test: Anti-bacterial activity against Pseudomonas aeruginosa ATCC 15442 assessed as inhibition of bacterial growth
[17] = test system: Pseudomonas aeruginosa; test: Anti-bacterial activity against Pseudomonas aeruginosa ATCC 9027 assessed as inhibition of bacterial growth
[18] = test system: Pseudomonas aeruginosa; test: Anti-bacterial activity against Pseudomonas aeruginosa CMCC (B) 10104 assessed as inhibition of bacterial growth
[19] = test system: Acinetobacter baumannii; test: Anti-bacterial activity against Acinetobacter baumannii R674 assessed as inhibition of bacterial growth
[20] = test system: Candida albicans; test: Anti-fungal activity against Candida albicans assessed as inhibition of fungal growth
[21] = test system: Candida albicans; test: Anti-fungal activity against Candida albicans 90023 assessed as inhibition of fungal growth
[22] = test system: Candida tropicalis; test: Anti-fungal activity against Candida tropicalis assessed as inhibition of fungal growth
[23] = test system: Candida parapsilosis; test: Anti-fungal activity against Candida parapsilosis assessed as inhibition of fungal growth
[24] = Klebsiella pneumoniae, KPN325, read-out: MIC
[25] = Staphylococcus aureus, ATCC 1708, read-out: MIC
[26] = Staphylococcus aureus, ATCC 25923, read-out: MIC
[27] = Staphylococcus aureus, ATCC 29213, read-out: MIC
[28] = Staphylococcus aureus, ATCC 12600, read-out: MIC
[29] = Pseudomonas aeruginosa, ST235, read-out: MIC
[30] = Pseudomonas aeruginosa, ATCC 27853, read-out: MIC
[31] = Pseudomonas aeruginosa, ATCC 15442, read-out: MIC
[32] = Pseudomonas aeruginosa, CMCC (B) 10104, read-out: MIC
[33] = Candida albicans, read-out: MIC
[34] = Candida tropicalis, read-out: MIC
[35] = Lodderomyces parapsilosis, read-out: MIC

SMILES | MIC [3] [µM] | MIC [4, 24] [µM] | MIC [5, 25] [µM] | MIC [6, 26] [µM] | MIC [7, 27] [µM] | MIC [8, 28] [µM] | MIC [9] [µM] | MIC [10] [µM] | MIC [11] [µM] | MIC [12] [µM] | MIC [13] [µM] | MIC [14, 29] [µM] | MIC [15, 30] [µM] | MIC [16, 31] [µM] | MIC [17] [µM] | MIC [18, 32] [µM] | MIC [20, 33] [µM] | MIC [21] [µM] | MIC [22, 34] [µM] | MIC [23, 35] [µM] | other results
CCOC(=O)C1=C(CN2CCN(C(=O)/C(=N/OC)c3csc(N)n3)CC2)NC(=O)NC1c1ccc(C(F)(F)F)cc1 (stereo unspecified) | 27 (≈ 16.1 µg/mL) | 108 (≈ 64.3 µg/mL) | 27 (≈ 16.1 µg/mL) | 27 (≈ 16.1 µg/mL) | 27 (≈ 16.1 µg/mL) | 27 (≈ 16.1 µg/mL) | 54 (≈ 32.2 µg/mL) | 108 (≈ 64.3 µg/mL) | 54 (≈ 32.2 µg/mL) | 27 (≈ 16.1 µg/mL) | 27 (≈ 16.1 µg/mL) | 54 (≈ 32.2 µg/mL) | 54 (≈ 32.2 µg/mL) | 54 (≈ 32.2 µg/mL) | 54 (≈ 32.2 µg/mL) | 27 (≈ 16.1 µg/mL) | 430 (≈ 256 µg/mL) | 7 (≈ 4.17 µg/mL) | 430 (≈ 256 µg/mL) | 430 (≈ 256 µg/mL) | MIC ([1]; Staphylococcus aureus, N315, read-out: MIC): 108 µM (≈ 64.3 µg/mL); MIC ([2]; Staphylococcus aureus, ATCC 43300, read-out: MIC): 27 µM (≈ 16.1 µg/mL); MIC [19]: 27 µM (≈ 16.1 µg/mL)
OC(Cn1cncn1)(Cn1cncn1)c1ccc(F)cc1F [FLUCONAZOLE] |  |  |  |  |  |  |  |  |  |  |  |  |  |  |  |  | 13 (≈ 3.98 µg/mL) | 7 (≈ 2.14 µg/mL) | 26 (≈ 7.96 µg/mL) | 13 (≈ 3.98 µg/mL) | 
CCCCc1nc(Cl)c(C2NC(=O)NC(CN3CCN(CC(O)c4nccs4)CC3)=C2C(=O)OCC)[nH]1 (stereo unspecified) |  | 199 (≈ 110 µg/mL) |  | 50 (≈ 27.6 µg/mL) | 50 (≈ 27.6 µg/mL) | 50 (≈ 27.6 µg/mL) | 99 (≈ 54.7 µg/mL) | 199 (≈ 110 µg/mL) |  |  |  | 199 (≈ 110 µg/mL) |  |  |  | 199 (≈ 110 µg/mL) | 455 (≈ 251 µg/mL) |  |  | 455 (≈ 251 µg/mL) | MIC [1]: 199 µM and 466 µM; MIC [2]: 50 µM and 116 µM; MIC [4]: 233 µM (≈ 129 µg/mL); MIC [5]: 99 µM and 233 µM; MIC [6]: 58 µM (≈ 32 µg/mL); MIC [7]: 58 µM (≈ 32 µg/mL); MIC [8]: 58 µM (≈ 32 µg/mL); MIC [14]: 116 µM (≈ 64 µg/mL); MIC [15]: 50 µM and 116 µM; MIC [16]: 50 µM and 116 µM; MIC [18]: 116 µM (≈ 64 µg/mL); MIC [20]: 466 µM (≈ 257 µg/mL); MIC [22]: 227 µM and 466 µM; MIC [23]: 466 µM (≈ 257 µg/mL)
CCOC(=O)C1=C(CN2CCN(C(=O)/C(=N/OC)c3csc(N)n3)CC2)NC(=O)NC1c1ccc(C#N)cc1 (stereo unspecified) | 29 (≈ 16 µg/mL) | 116 (≈ 64.1 µg/mL) | 58 (≈ 32.1 µg/mL) | 58 (≈ 32.1 µg/mL) | 58 (≈ 32.1 µg/mL) | 58 (≈ 32.1 µg/mL) | 58 (≈ 32.1 µg/mL) |  | 232 (≈ 128 µg/mL) | 29 (≈ 16 µg/mL) | 29 (≈ 16 µg/mL) | 58 (≈ 32.1 µg/mL) | 58 (≈ 32.1 µg/mL) | 58 (≈ 32.1 µg/mL) | 58 (≈ 32.1 µg/mL) | 58 (≈ 32.1 µg/mL) | 460 (≈ 254 µg/mL) | 115 (≈ 63.6 µg/mL) | 460 (≈ 254 µg/mL) | 460 (≈ 254 µg/mL) | MIC [19]: 29 µM (≈ 16 µg/mL)
